Data on 11 compounds can be found in patent US20260217672A1, “BENZAMIDE COMPOUNDS FOR TREATMENT OF BACTERIAL INFECTIONS” (Hoffmann-La Roche Inc., priority 2022, published 2026).

Structures are written as SMILES. ≈ marks a conversion by molar mass, not a printed value.

A short description of data set [1]: Human microsome stability assay. The format is in vitro ADME. Particulars: 1 μM test compound, 0.5 mg/mL liver microsomal protein, NADPH regenerating system, 37° C.; <7 low, 7-16.2 medium, >16.2 high. How it is done: The human microsomal stability assay is used for early assessment of metabolic stability of a test compound in human liver microsomes.
Human liver microsomes (Cat.NO.: 452117, Corning, USA) were pre-incubated with test compound for 10 minutes at 37° C. in 100 mM potassium phosphate buffer, pH 7.4. The reactions were initiated by adding NADPH regenerating system. The final incubation mixtures contained 1 μM test compound, 0.5 mg/mL liver microsomal protein, 1 mM MgCl2, 1 mM NADP, 1 unit/mL isocitric dehydrogenase and 6 mM isocitric acid in 100 mM potassium phosphate buffer, pH 7.4. After incubation times of 0, 3, 6, 9, 15 and 30 minutes at 37° C., 300 μL of cold acetonitrile (including internal standard) was added to 100 μL incubation mixture to terminate the reaction. Following precipitation and centrifugation, the amount of compound remaining in the samples were determined by LC-MS/MS. Controls of no NADPH regenerating system at zero and 30 minutes were also prepared and analyzed. […] (Human microsome clearance: <7 mL/min/kg (low); 7-16.2 mL/min/kg (medium); >16.2 mL/min/kg (high))
A general note: Liver microsomes are a subcellular fraction often used to study metabolism.

In data set [2] the test system is Escherichia coli ATCC 25922. Briefly: Minimal Inhibitory Concentration (MIC) broth dilution assay. Type of data set: cell-based. Particulars: ATCC25922, 20 h, read-out: MIC Escherichia coli ATCC 25922. The gist of the method:
(§1)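 Broth dilution MIC in cation-adjusted Mueller Hinton broth, final inoculum 5×10^5 CFU/mL, serial 2-fold compound dilutions from DMSO stocks. Plates incubated 20 hours at 35° C. in ambient air; MIC read visually as lowest concentration inhibiting visible growth.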
(In general: Dilution methods test growth across graded concentrations, often in twofold steps.)

Data set [3] relates to Klebsiella pneumonia ATCC 43816. The data set is described as above. The format is cell-based. The note with it: Klebsiella pneumoniae, ATCC43816, 20 h, read-out: MIC Klebsiella pneumoniae ATCC43816. Put shortly: as §1
The next data set concerns LPS synthesis pathway. Particulars: Bioorganic Chemistry 102 (2020) 104055; cited from earlier work.
The subject of data set [4] is efflux-deficient E. coli strains. The note with it: Bioorganic Chemistry 102 (2020) 104055; cited from earlier work.

Take `NCCCNCc1ccc(C(=O)Nc2ccc(S(=O)(=O)N3CCN(c4cc(C(F)(F)F)cc(Cl)n4)CC3)cc2)cc1` [Example 001, 4-[(3-Aminopropylamino)methyl]-N-[4-[4-[6-chloro-4-(trifluoromethyl)-2-pyridyl]piperazin-1-yl]sulfonylphenyl]benzamide]: the “Clearance of Human microsome” value in data set [1] is recorded as 6.2 mL/min/kg. The MIC (in general, the lowest concentration found to suppress growth) turned out to be 0.51 µg/mL (≈ 0.835 µM) in data set [2] and 1.5 µg/mL (≈ 2.45 µM) in data set [3].
For the compound `NCCCNCc1ccc(C(=O)Nc2ccc(S(=O)(=O)N3CCN(c4nccc(C(F)(F)F)n4)CC3)cc2)cc1` [Example 012, 4-[(3-Aminopropylamino)methyl]-N-[4-[4-[4-(trifluoromethyl)pyrimidin-2-yl]piperazin-1-yl]sulfonylphenyl]benzamide], in data set [1], the “Clearance of Human microsome” value was determined as 6.2 mL/min/kg. Also, the figures for the MIC in data set [2] and in data set [3] were 1.8 µg/mL (≈ 3.12 µM) and 3.6 µg/mL (≈ 6.23 µM), respectively.
Turning to `N#Cc1cc(Cl)nc(N2CCN(S(=O)(=O)c3ccc(NC(=O)c4cccc(CNCCCN)c4)cc3)CC2)c1` [Example 020, 3-[(3-Aminopropylamino)methyl]-N-[4-[4-(6-chloro-4-cyano-2-pyridyl)piperazin-1-yl]sulfonylphenyl]benzamide], the “Clearance of Human microsome” value in data set [1] is reported as 8.8 mL/min/kg. Moreover, the MIC was 1.2 µg/mL (≈ 2.11 µM) in data set [2] and 2.5 µg/mL (≈ 4.4 µM) in data set [3].
In the same order, the values of `O=C(c1cnn2cccnc12)N1CCc2cc(S(=O)(=O)N3CCN(c4cc(C(F)(F)F)cc(Cl)n4)CC3)ccc21` [Example 034, [5-[4-[6-Chloro-4-(trifluoromethyl)-2-pyridyl]piperazin-1-yl]sulfonylindolin-1-yl]-pyrazolo[1,5-a]pyrimidin-3-yl-methanone] are 6.2 mL/min/kg, 0.92 µg/mL (≈ 1.55 µM) and 0.92 µg/mL (≈ 1.55 µM).
As to `O=C(C1=NOC2(CCCNC2)C1)N1CCc2cc(S(=O)(=O)N3CCN(c4cc(C(F)(F)F)cc(Cl)n4)CC3)ccc21` (centres unmarked) [Example 039], in data set [1], the “Clearance of Human microsome” value came out at 9.4 mL/min/kg.
Consider `O=C(CNCCO)N1CCc2cc(S(=O)(=O)N3CCN(c4cc(C(F)(F)F)cc(Cl)n4)CC3)ccc21` [Example 041, 1-[5-[4-[6-Chloro-4-(trifluoromethyl)-2-pyridyl]piperazin-1-yl]sulfonylindolin-1-yl]-2-(2-hydroxyethylamino)ethanone], for which the “Clearance of Human microsome” value in data set [1] is listed as 6.2 mL/min/kg. Moreover, the results for the MIC in data set [2] and in data set [3] were 1 µg/mL (≈ 1.82 µM) and 8.3 µg/mL (≈ 15.1 µM), respectively.
On to `CC(=O)Oc1ccc(C(=O)N2CCc3cc(S(=O)(=O)N4CCN(c5cc(C(F)(F)F)cc(Cl)n5)CC4)ccc32)cc1OC(C)=O` [Example 043, [2-Acetoxy-4-[5-[4-[6-chloro-4-(trifluoromethyl)-2-pyridyl]piperazin-1-yl]sulfonylindoline-1-carbonyl]phenyl]acetate], for which the “Clearance of Human microsome” value in data set [1] worked out at 6.2 mL/min/kg. The results for the MIC in data set [2] and in data set [3] were 4.2 µg/mL (≈ 6.3 µM) and 2.1 µg/mL (≈ 3.15 µM), respectively.
In the same order, the values of `NCCCN1CCN(c2cccc(C(=O)Nc3ccc(S(=O)(=O)N4CCN(c5cc(C(F)(F)F)cc(Cl)n5)CC4)cc3)c2)CC1` [Example 068, 3-[4-(3-Aminopropyl)piperazin-1-yl]-N-[4-[4-[6-chloro-4-(trifluoromethyl)-2-pyridyl]piperazin-1-yl]sulfonylphenyl]benzamide] are 6.2 mL/min/kg, 1 µg/mL (≈ 1.5 µM) and 2.1 µg/mL (≈ 3.15 µM).
In the same order, the values of `O=C(Nc1ccc(S(=O)(=O)N2CCN(c3cc(C(F)(F)F)cc(Cl)n3)CC2)cc1)c1cccc(CNCCCN2CCNCC2)c1` [Example 078, N-[4-[4-[6-chloro-4-(trifluoromethyl)-2-pyridyl]piperazin-1-yl]sulfonylphenyl]-3-[(3-piperazin-1-ylpropylamino)methyl]benzamide] are 6.2 mL/min/kg, 1.4 µg/mL (≈ 2.06 µM) and 5.7 µg/mL (≈ 8.38 µM).
With `NCCCNCc1ccccc1C(=O)Nc1ccc(S(=O)(=O)N2CCN(c3cc(C(F)(F)F)cc(Cl)n3)CC2)cc1` [Example 088, 2-[(3-Aminopropylamino)methyl]-N-[4-[4-[6-chloro-4-(trifluoromethyl)-2-pyridyl]piperazin-1-yl]sulfonylphenyl]benzamide], the MIC in data set [2] was 1.3 µg/mL (≈ 2.13 µM); in data set [3] it was 2.6 µg/mL (≈ 4.25 µM).
As to `CC(=O)N1CCc2cc(S(=O)(=O)N3CCN(c4cc(Cl)cc(C(F)(F)F)c4)CC3)ccc21` [Example F-1, reference compound], the “Clearance of Human microsome” value in data set [1] is on record as 14 mL/min/kg. Besides, in the data set on LPS synthesis pathway, the “LPS synthesis pathway inhibition activity” value is “LPS synthesis pathway inhibition activity”. Also, the “antibiotic activity against efflux-deficient E. coli strains” value in data set [4] was “antibiotic activity”. The MIC in data set [2] and in data set [3] was above 24 µg/mL throughout.
